Counter-ions that a name gives are not always drawn.
Biological target: T1, MMP2 (gelatinase A) (Homo sapiens, UniProt P08253)
T1 construct: made in house; host or cells: baculovirus (pFAST BAC 1) in Tn insect cells, secreted
T1 sequence (P08253 110-660): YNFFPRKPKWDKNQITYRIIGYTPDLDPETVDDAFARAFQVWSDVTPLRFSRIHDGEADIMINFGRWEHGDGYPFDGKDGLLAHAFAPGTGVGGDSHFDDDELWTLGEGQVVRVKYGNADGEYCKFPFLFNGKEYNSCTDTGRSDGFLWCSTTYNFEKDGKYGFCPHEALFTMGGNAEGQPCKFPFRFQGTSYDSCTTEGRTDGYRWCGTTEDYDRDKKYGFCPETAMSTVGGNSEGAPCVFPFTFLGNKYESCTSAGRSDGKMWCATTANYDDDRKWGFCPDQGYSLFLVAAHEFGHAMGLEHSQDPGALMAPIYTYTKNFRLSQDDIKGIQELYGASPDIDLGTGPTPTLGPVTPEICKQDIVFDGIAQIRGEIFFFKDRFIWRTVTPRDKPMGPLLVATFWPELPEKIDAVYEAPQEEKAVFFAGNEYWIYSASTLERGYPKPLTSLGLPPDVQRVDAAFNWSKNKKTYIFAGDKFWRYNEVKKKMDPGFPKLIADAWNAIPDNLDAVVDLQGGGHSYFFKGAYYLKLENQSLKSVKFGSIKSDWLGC
Assay: MMP2 (gelatinase A) fluorogenic substrate inhibition assay
Format: biochemical
Details: mean ± SEM of three independent experiments
Description: The inhibitory activities of compounds of formula I on MT1-MMP, MMP1 (collagenase 1) and MMP2 (gelatinase A) can be determined as follows:
Stock solutions of substrate (MCA-Pro-Leu-Gly-Leu-Dpa-Ala-Arg-NH2 (SEQ ID NO: 1), C. G. Knight, et al, FEBS lett., 296, 263-266, (1992)), are prepared in 100% DMSO at a concentration 1.0 mM.
Stock solutions of inhibitors are prepared in 100% DMSO. The inhibitor is diluted into the assays from a solution in 100% DMSO, and controls substitute an equal volume of DMSO so that the final DMSO concentration from inhibitor and substrate dilutions in all assays is 6.0%. Assays are performed in assay buffer (150 mM NaCl, 10 mM CaCl2, 50 mM Tris-Cl pH7.5, 0.05% Brij-35) containing 6.0% DMSO once the substrate and inhibitor are diluted into it. The substrate concentration used in the assays is […]. The test is carried out at 37° C. The fluorescence changes are monitored using an excitation wavelength of 320 nm and an emission wavelength of […]. The reaction mixture is added in duplicate to appropriate wells of a 96 well microfluor plate. The reaction mixture is preincubated with the inhibitor for 30 min, the reaction is started by the addition of MMP enzyme and the fluorescence intensity is measured for 10 min. A time point that is on a linear part of the curve is chosen to determine the activity. […]

IC50: 3.29 ± 0.49 nM
Compound: CN(C)c1ccc(CN(CC(=O)NO)S(=O)(=O)c2ccc(OCC3CC3)cc2)cc1 [Example 2, 2-[(4-Cyclopropylmethoxy-benzenesulfonyl)-(4-dimethylamino-benzyl-amino]-N-hydroxy-acetamide HCl salt]

— patent US7659293B2, “α-Amino-N-hydroxy-acetamide derivatives” (Novartis AG, priority 2001, dated 2010)
